Here are results for six compounds from publication PMC3767324, “Synthesis, Characterization, and BSA Binding Studies of Some New Benzamides Related to Schiff Base” (ISRN Organic Chemistry, 2013).

pKd: −log10 of the molar value. In brackets after ≈: the same amount, converted by molar mass.

The target of data set [1] is T1, bovine serum albumin (BSA) (Bos taurus, UniProt P02769).
T1 construct: Bovine serum albumin (BSA), one of the major components in plasma protein; purchased Sigma Aldrich Bangalore
T1 sequence (P02769 25-607): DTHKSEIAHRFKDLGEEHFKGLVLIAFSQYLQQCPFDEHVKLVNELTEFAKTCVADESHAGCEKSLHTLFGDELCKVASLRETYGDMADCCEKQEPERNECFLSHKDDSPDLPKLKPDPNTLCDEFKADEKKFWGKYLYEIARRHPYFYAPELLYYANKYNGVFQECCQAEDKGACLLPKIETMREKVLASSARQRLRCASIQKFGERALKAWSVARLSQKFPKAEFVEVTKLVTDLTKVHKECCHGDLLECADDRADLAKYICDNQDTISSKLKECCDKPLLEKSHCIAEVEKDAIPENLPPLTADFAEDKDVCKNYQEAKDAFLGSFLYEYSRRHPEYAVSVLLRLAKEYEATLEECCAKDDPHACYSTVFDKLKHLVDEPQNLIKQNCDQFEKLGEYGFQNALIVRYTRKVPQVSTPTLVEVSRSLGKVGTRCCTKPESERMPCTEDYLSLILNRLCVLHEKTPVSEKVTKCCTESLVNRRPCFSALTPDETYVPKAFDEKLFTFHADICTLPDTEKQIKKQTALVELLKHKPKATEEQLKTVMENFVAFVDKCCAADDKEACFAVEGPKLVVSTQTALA
The experiment in a line: fluorescence quenching of BSA, binding parameters. As to conditions: for n (number of binding sites) / K sv (Stern-Volmer quenching constant) / K q (quenching rate constant) / shift of BSA fluorescence emission maximum wavelength: 298 K; for K sv (Stern-Volmer quenching constant): BSA 1.00 × 10^−5 mol L^−1, Tris-HCl pH 7.4; for K q (quenching rate constant): τ0 = 10^−8 s; for shift of BSA fluorescence emission maximum wavelength: excitation 280 nm, emission around 340 nm. As for the experimental part: All the chemicals and solvents were of AR grade. Solvents were used as supplied by commercial sources without any further purification. BSA (essentially fatty-acid-free) was purchased from Sigma Aldrich Bangalore and stored in refrigerator at 4.0°C. BSA solution was prepared in the Tris-HCl buffer solution (0.05 mol L^−1 Tris, 0.15 mol L^−1 NaCl, pH 7.4) and it was kept in the dark at 298 K. The compounds were prepared as stock solutions using DMF. All other reagents were of analytical reagent grade, and double-distilled water was used during the experiment.
For each of the […] active compounds (5a, 5c, 5g, 5h, 5i, and 5j), the binding parameters with BSA molecules were measured by fluorescence spectroscopy. A solution (2.5 mL) containing 1.00 × 10^−5 mol L^−1 BSA was titrated by successive additions of 1.00 × 10^−3 mol L^−1 NABP stock solution and the concentration of NABP varied from 0 to 3.0 × 10^−5 mol L^−1 (a–g). Titrations were done manually by using microinjector. Fluorescence intensity was measured (excitation at 280 nm and emission at 340 nm). All experiments were performed at 298 K.
In order to investigate the quenching mechanism, the fluorescence quenching data K 0 and n were analyzed by the Stern-Volmer equation (2): (2) F0/F=1+Ksv[Q]=1+Kqτ0[Q], where F 0 and F denote the steady-state fluorescence intensities in the absence and in the presence of quencher, respectively, K 0 is binding constant of BSA, [Q] is the equilibrium concentration of the quencher, and n is the number of binding sites. The average lifetime, τ 0 of the molecule without quencher is 10^−8 s.
When the quenching mechanism is static, the binding parameters between BSA and compounds can be determined using (3): (3) log(F0−F)/F=log Ka+n log[Q].
The plot of log[(F 0 − F)/F] versus log[NABP], binding constant K a, and binding sites n were calculated from the intercept and slope. […] The value of n approximately equaled 1.

The subject of data set [2] is Staphylococcus aureus (NCIM 5021). The experiment in a line: agar disc diffusion, zone of inhibition. Format: cell-based. As to conditions: Staphylococcus aureus, NCIM5021, 24 h. As for the experimental part: (§1) The in vitro antimicrobial screening effects of the compounds (3 and 5a–j) were individually tested against a panel of bacteria and fungi including Staphylococcus aureus (NCIM 5021), Bacillus subtilis (NCIM 2999), Pseudomonas aeruginosa (NCIM 5029), Escherichia coli (NCIM 2574), Candida. albicans (NCIM 3471), and Aspergillus flavus (NCIM 524). Microbial strains were cultured overnight at 37°C in nutrient and potato dextrose agar medium. All the pure microbial strains were obtained from National Chemical Laboratory (NCL), Pune, India.
(§2) The antibacterial activity of compounds was determined by agar disc diffusion method. Briefly, a suspension of tested bacterial strains was spread on the nutrient agar medium and potato dextrose agar for fungi. The discs (6 mm in diameter) impregnated with test chemicals each dissolved in concentration (100 μg/mL in DMSO) were placed on the inoculated agar and these plates were kept at 4°C for 2 h. The plate was incubated at 37°C for 24 h in case of bacteria and 48 h at 28°C in case of fungi. streptomycin (10 μg/disc) and fluconazole (10 μg/disc) were used as the standards for antibacterial and antifungal activity, respectively. All the samples were performed in triplicate and the zone of inhibition was measured in millimeters.

In data set [3] the test system is Aspergillus flavus (NCIM 524). Put plainly: agar disc diffusion, zone of inhibition. Format: cell-based. Particulars: Aspergillus flavus, NCIM524, 48 h. As for the experimental part: as §1, §2
Data set [4] relates to A. niger. Put plainly: agar disc diffusion, zone of inhibition. It is filed as cell-based. Particulars: Aspergillus niger, 48 h. Here is the method: [The procedure below names another organism; the source lists this organism under the same test.] as §1, §2
The test system of data set [5] is Escherichia coli (NCIM 2574). Put plainly: agar disc diffusion, zone of inhibition. Format: cell-based. Particulars: Escherichia coli, NCIM2574, 24 h. Here is the method: as §1, §2
The test system of data set [6] is Bacillus subtilis (NCIM 2999). The experiment in a line: agar disc diffusion, zone of inhibition. It is filed as cell-based. As to conditions: Bacillus subtilis, NCIM2999, 24 h. Here is the method:
as §1, §2

Data set [7] has as its system Pseudomonas aeruginosa (NCIM 5029). Put plainly: agar disc diffusion, zone of inhibition. Format: cell-based. Particulars: Pseudomonas aeruginosa, NCIM5029, 24 h. Here is the method:
as §1, §2

The nature of data set [8]: superoxide radical scavenging assay (NBT, xanthine-xanthine oxidase system). Format: biochemical. Particulars: NBT reduction, pH 7.8, 560 nm, three replicates. Here is the method: Superoxide radical scavenging activity was measured as described by Kovala-Demertzi et al., (2004). The assay is based on the reduction of nitroblue tetrazolium (NBT) by superoxide ions generated by the xanthine-xanthine oxidase system (X–XO). The reaction system contained 0.2 mM xanthine and 0.6 mM NBT in 0.1 M phosphate buffer, pH 7.8. The tested compounds were dissolved in methanol. The reaction was started by addition of XO (0.07 U mL^−1), an activity which allowed to yield the absorbance change between 0.03 and 0.04 per minute, at 560 nm. The extent of NBT reduction was followed spectrophotometrically, by measuring the increase of the absorbance at 560 nm. All the experiments were replicated three times. The IC50 of each compound was defined as the concentration which inhibited 50% of the NBT reduction by O2 ^•− produced in the X–XO system.
Superoxide anion radical is normally initially formed, and its effects can be magnified because it produces other kinds of free radicals and oxidizing agents. The enzymatic superoxide anion radical was generated by the xanthine/xanthine oxidase reaction system. The production of superoxide was estimated by the nitroblue tetrazolium method. […] Differently, in the m-position, methoxy and hydroxyl groups act as an electron-withdrawing properties, ([…]), which are possible for providing a destabilizing effect.

In turn, `CC(=O)N(C(=O)c1ccccc1)c1ccc(N=Cc2cc3ccccc3o2)cc1` [Compound 5c, N-acetyl-N -(4-((benzofuran-2-ylmethylene)amino)phenyl)benzamide] came in with a melting point of 192 °C. In addition, in [1], the pKd was 4.41, the “n (number of binding sites)” value came out at 0.855, the “K sv (Stern-Volmer quenching constant)” value was found to be 19300 L/mol and the “K q (quenching rate constant)” value came to 1.93e+12 M⁻¹ s⁻¹. The “shift of BSA fluorescence emission maximum wavelength” value (shortened to “shift”) in data set [1] is given as “red shift”. This compound also came in with a zone of inhibition at 100 µg/mL in data set [2] of 11 mm. Besides, in data set [3], the zone of inhibition at 100 µg/mL was 15 mm. Besides, the zone of inhibition at 100 µg/mL in [4] came to 9 mm. Further, in data set [5], the zone of inhibition at 100 µg/mL was found to be 15 mm. Besides, the zone of inhibition at 100 µg/mL in [6] was 10 mm. In data set [7], this compound gave a zone of inhibition at 100 µg/mL of 12 mm. Also, in data set [8], the “IC50 Superoxide” value came out at 60.9 ± 0.28 µg/mL (≈ 159 µM).
With `COc1ccc(C(=O)N(C(C)=O)c2ccc(N=Cc3cc4ccccc4o3)cc2)cc1` [Compound 5i, N-acetyl-N-(4-(benzofuran-2-ylmethyleneamino)phenyl)-4-methoxybenzamide], the melting point is 205 °C. Moreover, in data set [1], the pKd was 5.80, the “n (number of binding sites)” value turned out to be 1.208, the “K sv (Stern-Volmer quenching constant)” value amounted to 74000 L/mol and the “K q (quenching rate constant)” value came to 7.4e+12 M⁻¹ s⁻¹. In addition, in data set [1], the “shift” value is “slight blue shift”. In data set [2], this compound returned a zone of inhibition at 100 µg/mL of 14 mm. This compound also displayed a zone of inhibition at 100 µg/mL in [3] of 14 mm. The compound further displayed a zone of inhibition at 100 µg/mL in data set [4] of 10 mm. In [5], this compound displayed a zone of inhibition at 100 µg/mL of 11 mm. Further, in [6], the zone of inhibition at 100 µg/mL worked out at 10 mm. The compound further displayed a zone of inhibition at 100 µg/mL in [7] of 13 mm. In addition, the “IC50 Superoxide” value in data set [8] is on record as 14.3 ± 0.23 µg/mL (≈ 34.7 µM).
`CC(=O)N(C(=O)c1cc(F)c(F)c(F)c1)c1ccc(N=Cc2cc3ccccc3o2)cc1` [Compound 5g, N-acetyl-N-(4-(benzofuran-2-ylmethyleneamino)phenyl)-3,4,5-trifluorobenzamide]: the melting point turned out to be 190 °C. For the same compound, in data set [1], the negative-log Kd (pKd) was 5.20, the “n (number of binding sites)” value worked out at 1.281, the “K sv (Stern-Volmer quenching constant)” value came out at 79800 L/mol and the “K q (quenching rate constant)” value was 7.98e+12 M⁻¹ s⁻¹. For the same compound, the “shift” value in data set [1] is recorded as “slight blue shift”. Moreover, the zone of inhibition at 100 µg/mL in [2] was 13.6 mm. In data set [3], this compound had a zone of inhibition at 100 µg/mL of 14 mm. Besides, the zone of inhibition at 100 µg/mL in data set [4] turned out to be 13.2 mm. The compound also returned a zone of inhibition at 100 µg/mL in [5] of 12.7 mm. Also, the zone of inhibition at 100 µg/mL in data set [6] turned out to be 13.5 mm. The zone of inhibition at 100 µg/mL in data set [7] is 14 mm. Further, the “IC50 Superoxide” value in data set [8] amounted to 123 ± 0.44 µg/mL (≈ 282 µM).
For the compound `CC(=O)N(C(=O)c1ccc(O)cc1)c1ccc(N=Cc2cc3ccccc3o2)cc1` [Compound 5j, N-acetyl-N-(4-((benzofuran-2-ylmethylene)amino)phenyl)-4-hydroxybenzamide], the melting point stood at 213 °C. Further, in data set [1], the pKd was 4.04, the “n (number of binding sites)” value amounted to 0.961, the “K sv (Stern-Volmer quenching constant)” value was found to be 23900 L/mol and the “K q (quenching rate constant)” value is 2.39e+12 M⁻¹ s⁻¹. The “shift” value in data set [1] is on record as “red shift”. In data set [2], the zone of inhibition at 100 µg/mL came out at 12 mm. Further, the zone of inhibition at 100 µg/mL in data set [3] was 15 mm. The compound also displayed a zone of inhibition at 100 µg/mL in [4] of 9 mm. In [5], this compound came in with a zone of inhibition at 100 µg/mL of 11 mm. The compound also came in with a zone of inhibition at 100 µg/mL in data set [6] of 9 mm. The same compound had a zone of inhibition at 100 µg/mL in data set [7] of 13 mm. For the same compound, in [8], the “IC50 Superoxide” value was determined as 11.6 ± 0.04 µg/mL (≈ 29.1 µM).
For the compound `CC(=O)N(C(=O)c1cc(F)ccc1F)c1ccc(N=Cc2cc3ccccc3o2)cc1` [Compound 5a, N-acetyl-N-(4-((benzofuran-2-ylmethylene)amino)phenyl)-2,5-difluorobenzamide], the melting point amounted to 197 °C. Moreover, in [1], the pKd was 5.72, the “n (number of binding sites)” value is 1.180, the “K sv (Stern-Volmer quenching constant)” value amounted to 99600 L/mol and the “K q (quenching rate constant)” value amounted to 9.96e+12 M⁻¹ s⁻¹. Moreover, the “shift” value in data set [1] is on record as “slight blue shift”. For the same compound, the zone of inhibition at 100 µg/mL in data set [2] worked out at 11 mm. In addition, the zone of inhibition at 100 µg/mL in data set [3] was 10.4 mm. The compound further showed a zone of inhibition at 100 µg/mL in data set [4] of 11 mm. Besides, the zone of inhibition at 100 µg/mL in data set [5] amounted to 12 mm. The compound also showed a zone of inhibition at 100 µg/mL in data set [6] of 16 mm. This compound returned a zone of inhibition at 100 µg/mL in data set [7] of 14 mm. For the same compound, the “IC50 Superoxide” value in [8] is listed as 91.3 ± 0.26 µg/mL (≈ 218 µM).
The compound `CC(=O)N(C(=O)c1cc(F)cc(F)c1)c1ccc(N=Cc2cc3ccccc3o2)cc1` [Compound 5h, N-acetyl-N-(4-((benzofuran-2-ylmethylene)amino)phenyl)-3,5-difluorobenzamide] displayed a melting point of 187 °C. In data set [1], the pKd is 4.90, the “n (number of binding sites)” value was 1.136, the “K sv (Stern-Volmer quenching constant)” value was found to be 21300 L/mol and the “K q (quenching rate constant)” value came to 2.13e+12 M⁻¹ s⁻¹. For the same compound, the “shift” value in data set [1] is given as “red shift”. In addition, the zone of inhibition at 100 µg/mL in [2] is 14 mm. Also, the zone of inhibition at 100 µg/mL in [3] is 10.9 mm. Besides, the zone of inhibition at 100 µg/mL in data set [4] is 11.4 mm. In [5], this compound displayed a zone of inhibition at 100 µg/mL of 11 mm. In [6], this compound had a zone of inhibition at 100 µg/mL of 12 mm. This compound also came in with a zone of inhibition at 100 µg/mL in data set [7] of 17 mm. Besides, the “IC50 Superoxide” value in data set [8] was 96.1 ± 0.31 µg/mL (≈ 230 µM).
